Reference: PubChem BioAssay (NCI)
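Briefly, cells in 96-well plates were exposed to five compound concentrations for 48 h, and endpoints were estimated by linear interpolation. TGI is the concentration that stops growth completely.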

Legend:
Experiment in all cases: DTP human tumour cell line panel, 48 h
[1] = tested on: SK-MEL-2 melanoma
[2] = tested on: SNB-75 CNS
[3] = tested on: HCT-116 colon
[4] = tested on: CCRF-CEM leukemia
[5] = tested on: UACC-62 melanoma
[6] = tested on: HCT-15 colon
[7] = tested on: NCI-H226 lung
[8] = tested on: SN12C renal
[9] = tested on: T-47D breast
[10] = tested on: DU-145 prostate

Q: With `CC(C)c1cccc(C(C)C)c1NC(=O)C(=O)Cc1nc2ccc([N+](=O)[O-])cc2[nH]c1=O` as the molecule, how does the TGI [1] read?
A: > 100 µM

Q: And the TGI [2]?
A: > 100 µM

Q: What about the TGI [3] of the same molecule?
A: > 100 µM

Q: What about the TGI [4] of the same molecule?
A: > 100 µM

Q: And the TGI [5]?
A: > 100 µM

Q: What about the TGI [6] of the same molecule?
A: 48.9 µM

Q: And the TGI [7]?
A: > 100 µM

Q: For `CN(C)CCN(C)P12(Oc3ccccc3O1)Oc1c(Cl)c(Cl)c(Cl)c(Cl)c1O2`, which TGI [8] is on record?
A: > 100 µM

Q: And the TGI [2]?
A: 82 µM

Q: What about the TGI [9] of the same molecule?
A: > 100 µM

Q: And the TGI [3]?
A: > 100 µM

Q: What about the TGI [4] of the same molecule?
A: 92.2 µM

Q: What about the TGI [5] of the same molecule?
A: > 100 µM

Q: What about the TGI [6] of the same molecule?
A: > 100 µM

Q: What about the TGI [10] of the same molecule?
A: > 100 µM

Q: What about the TGI [7] of the same molecule?
A: > 100 µM

Q: What does the source list for `CCCCOCCOCCOC1=CC(=O)c2c(O)ccc(O)c2C1=O`?
A: TGI [8]: 3.22 µM; TGI [1]: 3.52 µM; TGI [9]: 6.16 µM; TGI [3]: 3.22 µM; TGI [4]: 6.01 µM; TGI [5]: 3.64 µM; TGI [10]: 3.1 µM; TGI [7]: 3.59 µM

Q: For `Clc1ccc(Nc2nnc(CNc3ccc(-c4nnc(Nc5ccc(Cl)cc5)s4)cc3)s2)cc1`, which TGI [8] is on record?
A: > 100 µM

Q: What about the TGI [1] of the same molecule?
A: 67.6 µM

Q: And the TGI [2]?
A: > 100 µM

Q: What about the TGI [3] of the same molecule?
A: 30.8 µM

Q: And the TGI [5]?
A: 64.9 µM

Q: What about the TGI [6] of the same molecule?
A: > 100 µM

Q: What about the TGI [10] of the same molecule?
A: > 100 µM

Q: What about the TGI [7] of the same molecule?
A: > 100 µM

Q: With `CC1(C)C2CCC3CC(CCC#N)CCC3C21C#N` (centres undefined) as the molecule, how does the TGI [8] read?
A: > 100 µM

Q: What about the TGI [1] of the same molecule?
A: > 100 µM

Q: What about the TGI [9] of the same molecule?
A: > 100 µM

Q: What about the TGI [3] of the same molecule?
A: > 100 µM

Q: What about the TGI [4] of the same molecule?
A: > 100 µM

Q: And the TGI [5]?
A: > 100 µM

Q: What about the TGI [6] of the same molecule?
A: > 100 µM

Q: What about the TGI [10] of the same molecule?
A: > 100 µM

Q: And the TGI [7]?
A: > 100 µM

Q: What does the source list for `[N-]=[N+]=Nc1ccccc1-c1ccccc1[N+](=O)[O-]`?
A: TGI [8]: > 100 µM; TGI [1]: > 100 µM; TGI [2]: > 100 µM; TGI [9]: > 100 µM; TGI [3]: > 100 µM; TGI [5]: > 100 µM; TGI [6]: > 100 µM; TGI [10]: > 100 µM

Q: What does the source list for `O=c1[nH]nc(Cc2ccccc2)n1/N=C/c1cccs1`?
A: TGI [8]: > 100 µM; TGI [1]: > 100 µM; TGI [2]: > 100 µM; TGI [9]: > 100 µM; TGI [3]: > 100 µM; TGI [4]: > 100 µM; TGI [5]: > 100 µM; TGI [6]: > 100 µM; TGI [10]: > 100 µM; TGI [7]: > 100 µM

Q: For `CC(C)OC(=O)c1ccc(NCc2cc(O)ccc2O)cc1`, which TGI [8] is on record?
A: 7.3 µM

Q: And the TGI [1]?
A: 27.8 µM

Q: And the TGI [2]?
A: 18.6 µM

Q: And the TGI [9]?
A: 4.66 µM

Q: What about the TGI [3] of the same molecule?
A: 19.8 µM

Q: What about the TGI [4] of the same molecule?
A: > 100 µM

Q: What about the TGI [5] of the same molecule?
A: 30.9 µM

Q: And the TGI [6]?
A: 9.21 µM

Q: And the TGI [10]?
A: 15.4 µM

Q: And the TGI [7]?
A: 18.9 µM

Q: How did the TGI [8] turn out when `COC(=O)C1CC2C=CC=CC(=O)C2(C)C1` (centres undefined) was run?
A: > 100 µM

Q: And the TGI [1]?
A: > 100 µM

Q: And the TGI [3]?
A: 86.3 µM

Q: And the TGI [4]?
A: 71.8 µM

Q: What about the TGI [5] of the same molecule?
A: > 100 µM

Q: What about the TGI [6] of the same molecule?
A: > 100 µM

Q: And the TGI [7]?
A: > 100 µM

Q: With `CCNC(=O)C(C)C1CCC2(C)C=CC(=O)C(C)=C2C1O` (centres undefined) as the molecule, how does the TGI [8] read?
A: > 100 µM

Q: What about the TGI [1] of the same molecule?
A: > 100 µM

Q: And the TGI [2]?
A: > 100 µM

Q: And the TGI [3]?
A: > 100 µM

Q: What about the TGI [4] of the same molecule?
A: > 100 µM

Q: What about the TGI [5] of the same molecule?
A: > 100 µM

Q: And the TGI [6]?
A: > 100 µM

Q: And the TGI [7]?
A: > 100 µM

Q: Which results are given for `CSc1ncnc2c1cnn2Cc1cnnn1COCC(O)CO` (centres undefined)?
A: TGI [8]: > 100 µM; TGI [1]: > 100 µM; TGI [9]: > 100 µM; TGI [3]: > 100 µM; TGI [4]: > 100 µM; TGI [5]: > 100 µM; TGI [6]: > 100 µM; TGI [10]: > 100 µM; TGI [7]: > 100 µM

Q: `OCC#CCNCl` was tested. Which TGI [8] did it give?
A: > 100 µM

Q: And the TGI [1]?
A: > 100 µM

Q: And the TGI [2]?
A: > 100 µM

Q: What about the TGI [3] of the same molecule?
A: > 100 µM

Q: What about the TGI [4] of the same molecule?
A: > 100 µM

Q: What about the TGI [5] of the same molecule?
A: > 100 µM

Q: And the TGI [6]?
A: > 100 µM

Q: What about the TGI [7] of the same molecule?
A: > 100 µM

Q: How did the TGI [8] turn out when `C/C(=C/C(=O)Nc1ccccc1)Nc1onc(C)c1C` was run?
A: > 100 µM

Q: And the TGI [1]?
A: > 100 µM

Q: And the TGI [2]?
A: > 100 µM

Q: What about the TGI [3] of the same molecule?
A: > 100 µM

Q: And the TGI [4]?
A: > 100 µM

Q: And the TGI [5]?
A: > 100 µM

Q: And the TGI [6]?
A: > 100 µM

Q: What about the TGI [7] of the same molecule?
A: > 100 µM

Q: Which results are given for `COc1ccc(Nc2nc3ccccc3n3cccc23)cc1OC`?
A: TGI [1]: 33.3 µM; TGI [9]: 15.2 µM; TGI [3]: 36.4 µM; TGI [4]: 15.2 µM; TGI [5]: 27.4 µM; TGI [6]: 31.6 µM; TGI [10]: 35.6 µM

Q: For `Cc1cc2ncn(-c3nc4ccccc4nc3C(C#N)S(C)(=O)=O)c2cc1C` (centres undefined), which TGI [8] is on record?
A: > 100 µM

Q: What about the TGI [1] of the same molecule?
A: > 100 µM

Q: And the TGI [2]?
A: > 100 µM

Q: What about the TGI [3] of the same molecule?
A: > 100 µM

Q: And the TGI [4]?
A: > 100 µM

Q: And the TGI [5]?
A: > 100 µM

Q: And the TGI [6]?
A: > 100 µM

Q: What about the TGI [7] of the same molecule?
A: > 100 µM

Q: What does the source list for `CC(=O)OI1NC(=O)c2ccccc21`?
A: TGI [8]: > 100 µM; TGI [1]: > 100 µM; TGI [2]: > 100 µM; TGI [3]: > 100 µM; TGI [4]: > 100 µM; TGI [5]: > 100 µM; TGI [6]: > 100 µM; TGI [10]: > 100 µM; TGI [7]: > 100 µM

Q: With `S=c1sc2c(s1)SC(c1ccccc1)CS2` (centres undefined) as the molecule, how does the TGI [8] read?
A: > 100 µM

Q: And the TGI [1]?
A: > 100 µM

Q: What about the TGI [2] of the same molecule?
A: > 94.2 µM

Q: And the TGI [3]?
A: > 100 µM

Q: And the TGI [4]?
A: > 100 µM

Q: What about the TGI [5] of the same molecule?
A: > 100 µM

Q: And the TGI [6]?
A: > 100 µM

Q: What about the TGI [7] of the same molecule?
A: > 100 µM

Q: Which TGI [8] does the source give for `CC(C)[C@@H]1CC[C@@H](C)C[C@H]1OC(=O)c1c2n(c3ccccc13)C[C@H]1OC(C)(C)O[C@@H]21` here?
A: > 100 µM

Q: And the TGI [1]?
A: > 100 µM

Q: And the TGI [9]?
A: > 100 µM

Q: And the TGI [3]?
A: > 100 µM

Q: And the TGI [4]?
A: > 100 µM

Q: What about the TGI [5] of the same molecule?
A: > 100 µM

Q: And the TGI [6]?
A: > 100 µM

Q: What about the TGI [10] of the same molecule?
A: > 100 µM

Q: What about the TGI [7] of the same molecule?
A: > 100 µM

Q: How did the TGI [8] turn out when `N#CC(NNC(=O)Cc1ccccc1)c1cccc(O)c1` (centres undefined) was run?
A: > 100 µM

Q: What about the TGI [1] of the same molecule?
A: > 100 µM

Q: And the TGI [2]?
A: > 100 µM

Q: And the TGI [3]?
A: > 100 µM

Q: What about the TGI [4] of the same molecule?
A: > 100 µM

Q: And the TGI [5]?
A: > 100 µM

Q: And the TGI [6]?
A: > 100 µM

Q: What about the TGI [7] of the same molecule?
A: > 100 µM

Q: Which results are given for `CC1=NN(c2nc(N)nc(NS(=O)(=O)c3cc(C)c(Cl)cc3S)n2)C(C)(C)C1`?
A: TGI [8]: > 10 µM; TGI [1]: > 10 µM; TGI [2]: > 10 µM; TGI [9]: > 10 µM; TGI [3]: > 10 µM; TGI [4]: > 10 µM; TGI [6]: > 10 µM; TGI [10]: > 10 µM; TGI [7]: > 10 µM

Q: With `CC1=C(c2nc3ccccc3s2)C(=O)OC1(C)C` as the molecule, how does the TGI [8] read?
A: > 100 µM

Q: And the TGI [1]?
A: > 100 µM

Q: And the TGI [2]?
A: > 100 µM

Q: What about the TGI [3] of the same molecule?
A: > 100 µM

Q: What about the TGI [4] of the same molecule?
A: > 100 µM

Q: What about the TGI [5] of the same molecule?
A: > 100 µM

Q: And the TGI [6]?
A: > 100 µM

Q: And the TGI [7]?
A: > 100 µM

Q: What does the source list for `CCC(NC(C)c1ccccc1)C(=O)c1ccc(OCc2ccccc2)c(OCc2ccccc2)c1` (centres undefined)?
A: TGI [8]: > 100 µM; TGI [2]: > 100 µM; TGI [9]: > 100 µM; TGI [3]: > 100 µM; TGI [5]: > 100 µM; TGI [6]: > 100 µM; TGI [10]: > 100 µM; TGI [7]: > 100 µM

Q: Which results are given for `CCc1n[nH]c(=O)n1CCCCCCCCn1c(CC)n[nH]c1=O`?
A: TGI [8]: > 100 µM; TGI [1]: > 100 µM; TGI [2]: > 100 µM; TGI [9]: > 100 µM; TGI [3]: > 100 µM; TGI [4]: > 100 µM; TGI [5]: > 100 µM; TGI [6]: > 100 µM; TGI [7]: > 100 µM

Q: Which results are given for `CCCCCCCC/C=C1\CCC(CN(C)C)C1=O` (centres undefined)?
A: TGI [8]: 14.6 µM; TGI [1]: 24.6 µM; TGI [2]: 14.1 µM; TGI [3]: 7.34 µM; TGI [4]: 6.96 µM; TGI [5]: 19.6 µM; TGI [6]: 7.5 µM; TGI [7]: 37.3 µM

Q: Which results are given for `CC1(C)CCN2C(=O)C34CCCC3CC21S4` (centres undefined)?
A: TGI [8]: > 100 µM; TGI [1]: > 100 µM; TGI [9]: > 100 µM; TGI [3]: > 100 µM; TGI [4]: > 100 µM; TGI [5]: > 100 µM; TGI [6]: > 100 µM; TGI [10]: > 100 µM; TGI [7]: > 100 µM
